In patent US20140228303A1, “NOVEL SGLT INHIBITORS” (Panacea Biotec Ltd, priority 2011, published 2014):

Assays:
mouse SGLT-2 = target: T1, mouse SGLT-2 (Mus musculus, UniProt Q923I7); assay: Methyl-α-D-[U-14C]Glucopyranoside uptake assay for SGLT-2 in CHO-K1 cells expressing mSGLT-2; type: cell-based; settings: N.E. = Not Effective
T1 construct: Full-length mouse SGLT-2 cDNA was amplified from C57BL/6J mouse kidneys and introduced in the pcDNA3.1(+) expression vector; expressed in transfected cells
T1 sequence (Q923I7 1-670): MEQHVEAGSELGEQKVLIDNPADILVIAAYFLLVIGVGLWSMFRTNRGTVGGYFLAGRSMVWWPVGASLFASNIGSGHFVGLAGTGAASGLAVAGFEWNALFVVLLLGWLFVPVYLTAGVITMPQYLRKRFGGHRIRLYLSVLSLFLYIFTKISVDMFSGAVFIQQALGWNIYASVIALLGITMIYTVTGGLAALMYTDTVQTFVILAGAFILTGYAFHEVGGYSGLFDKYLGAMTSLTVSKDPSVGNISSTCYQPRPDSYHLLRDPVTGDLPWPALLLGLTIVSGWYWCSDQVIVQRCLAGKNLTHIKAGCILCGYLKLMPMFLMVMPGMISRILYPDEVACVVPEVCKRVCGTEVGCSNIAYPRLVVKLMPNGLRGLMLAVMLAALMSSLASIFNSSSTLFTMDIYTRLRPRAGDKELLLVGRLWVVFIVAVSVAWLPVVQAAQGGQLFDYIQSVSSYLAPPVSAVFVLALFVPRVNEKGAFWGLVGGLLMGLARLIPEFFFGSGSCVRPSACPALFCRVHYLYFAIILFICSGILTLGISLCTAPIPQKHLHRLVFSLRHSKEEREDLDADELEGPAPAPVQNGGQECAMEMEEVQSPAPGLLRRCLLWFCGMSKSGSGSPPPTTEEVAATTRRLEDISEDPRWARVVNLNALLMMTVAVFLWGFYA
Method: Preparation of Mouse SGLT-2 Expressing Cells
Full-length mouse SGLT-2 cDNA was amplified from C57BL/6J mouse kidneys and introduced in the pcDNA3.1(+) expression vector (Invitrogen, Inc.) and propagated in Escherichia coli strain DH5α using Luria-Bertani (LB) medium containing ampicillin. […] Stably transfected cells were selected using G418 antibiotic selection pressure.
Methyl-α-D-[U-^14C]Glucopyranoside Uptake Assay for SGLT-2
(§1) Cells expressing mSGLT-2 were seeded on 96-well tissue culture plates (Greiner, Inc.) in RPMI containing 10% FBS and 400 μg/mL G418 (0.8×10^5 cells per well in 200 μL medium) and incubated at 37° C. under 5% carbon dioxide for 24 h prior to the assay. Cells were washed twice with 200 μL of either sodium buffer (140 mM NaCl, 4.7 mM KCl, 2.2 mM CaCl2, 1.2 mM MgCl2, 10 mM Tris/Hepes, pH 7.4) or sodium-free buffer (137 mM N-methyl-glucamine, 4.7 mM KCl, 2.2 mM CaCl2, 1.2 mM MgCl2, 10 mM Tris/Hepes, pH 7.4). Reaction mixture containing test compounds at different concentrations diluted in assay buffer, 0.1 mM unlabeled Methyl-α-D-glucopyranoside and 1 μCi/well methyl-α-D[U-^14C]glucopyranoside (American Radiochemicals) was added per well of a 96-well plate and incubated at 37° C. for 1 h. Cells were washed thrice with 200 μL of wash buffer (140 mM NaCl, 4.7 mM KCl, 2.2 mM CaCl2, 1.2 mM MgCl2, 10 mM Tris/Hepes, pH 7.4 containing 500 μM phlorizin) and lysed using 50 μL of 0.25N NaOH. Methyl-α-D[U-^14C]glucopyranoside uptake was quantitated using a Top count scintillation counter (PerkinElmer, Inc.). All the test compounds were assayed in triplicates.

human SGLT-1 = target: T2, human SGLT-1 (Homo sapiens, UniProt P13866); assay: Methyl-α-D-[U-14C]Glucopyranoside uptake assay for SGLT-1 in CHO-K1 cells expressing hSGLT-1; type: cell-based; settings: N.E. = Not Effective
T2 construct: Full-length human SGLT-1 cDNA in the pCMV-XL-Neo expression vector was obtained from Origene Corporation
T2 sequence (P13866 1-664): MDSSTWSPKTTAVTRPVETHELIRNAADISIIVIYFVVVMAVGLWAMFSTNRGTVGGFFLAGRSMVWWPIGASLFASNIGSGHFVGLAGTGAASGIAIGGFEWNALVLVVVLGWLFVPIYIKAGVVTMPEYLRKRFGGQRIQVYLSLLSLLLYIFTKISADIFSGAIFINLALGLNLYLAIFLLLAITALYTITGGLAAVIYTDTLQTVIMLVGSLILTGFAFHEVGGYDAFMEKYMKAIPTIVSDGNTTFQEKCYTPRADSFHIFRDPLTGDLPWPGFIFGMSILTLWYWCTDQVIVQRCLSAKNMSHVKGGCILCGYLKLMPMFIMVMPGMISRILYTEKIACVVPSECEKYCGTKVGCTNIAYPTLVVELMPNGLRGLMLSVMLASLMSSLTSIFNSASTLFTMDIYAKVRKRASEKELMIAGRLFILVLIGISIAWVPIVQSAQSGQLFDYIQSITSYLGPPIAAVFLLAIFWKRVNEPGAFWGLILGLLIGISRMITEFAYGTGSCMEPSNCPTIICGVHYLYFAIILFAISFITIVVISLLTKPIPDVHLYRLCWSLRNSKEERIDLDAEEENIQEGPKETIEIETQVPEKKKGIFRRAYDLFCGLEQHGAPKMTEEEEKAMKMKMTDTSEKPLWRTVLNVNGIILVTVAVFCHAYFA
Method: Preparation of Human SGLT-1 Expressing Cells
Full-length human SGLT-1 cDNA in the pCMV-XL-Neo expression vector was obtained from Origene Corporation and propagated in Escherichia coli strain DH5α using Luria-Bertani (LB) medium containing ampicillin. […] Stably transfected cells were selected using G418 antibiotic selection pressure.
Methyl-α-D-[U-^14C]Glucopyranoside Uptake Assay for SGLT-1
as §1, with “hSGLT-1” for “mSGLT-2”, “800 μg/ml” for “400 μg/mL”, “compounds” for “compounds at different concentrations”, “1” for “0.1”, “methyl-α-D-[U-^14C]glucopyranoside” for “methyl-α-D[U-^14C]glucopyranoside”, “Methyl-α-D-[U-^14C]glucopyranoside” for “Methyl-α-D[U-^14C]glucopyranoside”

Rats = assay: Estimation of urinary glucose in rat; type: in vivo; settings: urine collected over 24 hrs
Method: Estimation of Urinary Glucose in Rat
Rats were fasted overnight (14 hrs) before drug treatment. Fasted rats were weighed and randomized into different groups based on their body weight (n=4). At time To test compounds and standard compound suspended in 0.25% C.M.C. or PEG 400 formulation were administered to respective groups and kept the animals in metabolic cages (1 rat/cage) after dosing. Animals were fed after drug administration and urine was collected over a period of 24 hrs. Urine volume was measured and urinary glucose was estimated using Merckotest Glucose Reagent (Merck Specialities Pvt. Ltd., India).

C57BL/6J mice = assay: Estimation of urinary glucose in C57BL/6J mice; type: in vivo, mouse; settings: urine collected over 24 h
Method: Estimation of Urinary Glucose in C57BL/6J Mice
C57BL/6J mice were fasted 4 h before drug treatment. Fasted mice were weighed and randomized into different groups based on their body weight (n=6). At time T0 test compounds and standard compounds suspended in 0.25% CMC or PEG 400 formulation, were administered to respective groups and kept in metabolic cages (6 mice/cage) after dosing. Animals were fed after drug administration and urine was collected over a period of 24 h. Urinary volume was measured and urinary glucose was estimated using Merckotest Glucose Reagent (Merck Specialities Pvt. Ltd., India).

1-(4-(2-chloro-5-((2S,3R,4R,5S,6R)-3,4,5-trihydroxy-6-(hydroxymethyl)tetrahydro-2H-pyran-2-yl)benzyl)phenyl)ethanone O-methyl oxime [Compound 2]
% inhibition of Methyl-α-D-[U-14C] Glucopyranoside uptake (CHO-K1 cells) mediated by SGLT-2 (mouse SGLT-2; 0.1 nM compound): 16.73%
% inhibition of Methyl-α-D-[U-14C] Glucopyranoside uptake (CHO-K1 cells) mediated by SGLT-2 (mouse SGLT-2; 1 nM compound): 26.19%
% inhibition of Methyl-α-D-[U-14C] Glucopyranoside uptake (CHO-K1 cells) mediated by SGLT-2 (mouse SGLT-2; 10 nM compound): 73.13%
% inhibition of Methyl-α-D-[U-14C] Glucopyranoside uptake (CHO-K1 cells) mediated by SGLT-2 (mouse SGLT-2; 100 nM compound): 92.85%
% inhibition of Methyl-α-D-[U-14C] Glucopyranoside uptake (CHO-K1 cells) mediated by SGLT-1 (human SGLT-1; 100 nM compound): N.E.
% inhibition of Methyl-α-D-[U-14C] Glucopyranoside uptake (CHO-K1 cells) mediated by SGLT-1 (human SGLT-1; 1 μM compound): 33.10%
% inhibition of Methyl-α-D-[U-14C] Glucopyranoside uptake (CHO-K1 cells) mediated by SGLT-1 (human SGLT-1; 10 μM compound): 78.87%
UGE in rat (in mg/g of feed consumed) at 3 mpk (Rats): 68.6 mg/g of feed consumed
UGE in mice (in mg/g of feed consumed) at 3 mpk (C57BL/6J mice): 88.9 mg/g of feed consumed
